In data set [1] the test system is glutamate in blood cells and plasma (GPT, GOT, 2-ketoglutarate dehydrogenase, GDH). As to the kind of experiment: In-vitro glutamate levels and conversion in blood cell fraction and plasma. Type of data set: biochemical, rat. As to conditions: for blood cell (cellular) glutamate levels / plasma glutamate levels: incubation of blood with GDH co-factors in vitro. The method, then: (§1) Induction of rat blood glutamate metabolism and glutamate concentration determination—Fresh rat blood samples incubated at 37° C. were supplemented every 15 minutes or as noted with oxaloacetate and/or pyruvate (final concentration of 1 mM at pH 7.4).
(§2) At indicated time intervals, 150 μl aliquots were removed and centrifuged at 1,300×g for 7 minutes. Plasma volume (i.e., supernatant) was measured and was combined with identical volume of perchloric acid (PCA) to precipitate protein content. Precipitation was allowed to proceed for 10 minutes on ice and thereafter samples were centrifuged. Cell pellet (i.e., erythrocytes, lymphocytes and platelets) was lysed by osmotic shock following resuspension in double distilled water up to a final volume of 150 μl. A second step of protein precipitation was then performed by adding 150 μl of PCA [[…]]. Plasma and cell PCA-precipitated fractions were centrifuged at 16,000×g for 10 minutes and pellets were discarded.
Supernatant glutamate concentration was determined according to the fluorometric procedure of Graham and Aprison [(1996) Anal. Biochem. 15(3):487-97]. In brief: 20 μl aliquot of PCA precipitated fraction was added to 480 μl HG buffer containing 15 u of glutamate dehydrogenase in 0.2 mM NAD, 0.3 M glycine, 2.4% hydrazine hydrate adjusted to pH 6.8 with H2SO4 [1 N] and incubated at room temperature for 30-45 minutes. Fluorescence was measured at 460 nm following excitation at 350 nm. All measurements were performed alongside a glutamate standard curve at a glutamate concentration range of 0-6 μM. All glutamate measurements were performed in duplicates.
Results—Glutamate levels were therefore determined individually in blood cell fractions (closed symbols) and in plasma (open symbols), following repeated additions (arrows) of 1 mM pyruvate (squares), 1 mM oxaloacetate (triangles) or of a mixture of 1 mM pyruvate and 1 mM oxaloacetate (diamonds) (FIG. 2A). Glutamate determination was conducted as described in Example 1.

In data set [2] the test system is rat blood plasma glutamate (GOT, GPT). As to the kind of experiment: Glutamate conversion in rat blood plasma by pyruvate and oxaloacetate analogues. Type of data set: biochemical. As to conditions: for % of remaining Glutamate: rat blood plasma, 1 mM of each co-substrate. The method, then: A number of glutamate modifying enzymes were tested for their ability to enhance glutamate conversion in rat blood plasma. Table 1 below summarizes the results obtained with 1 mM of each co-substrate.

Data set [3] can be described thus: Blood concentrations of pyruvate and oxaloacetate during intravenous infusion. The format is in vivo, rat. Conditions: intravenous 50 μMoles/min each for 30 min. The method, then: Glutamate analyses of in-vivo treated blood samples were carried out according to the fluorometric procedure of Graham and Aprison [(1996) Anal. Biochem. 15(3):487-97]. Pyruvate concentration determination—Blood Pyruvate concentration was measured using the Sigma Diagnostics Pyruvate reagents according to manufacturer's instructions. In brief: the procedure utilizes lactate dehydrogenase which in the presence of excess NADH catalyzes almost complete conversion of pyruvate into lactate with a concomitant production of NAD. The reduction of absorbance at 340 nm due to the oxidation of NADH into NAD is the measure of the amount of pyruvate originally present.
(§3) Oxaloacetate concentration determination—Blood oxaloacetate concentration was measured using the same procedure as for pyruvate but using malate dehydrogenase which catalyses the conversion of oxaloacetate into malate along with the oxidation of NADH into NAD.
Results—The effect on glutamate levels via pyruvate and oxaloacetate administration through an intravenous catheter at a rate of 50 μMoles/minute for a duration of 30 minutes was determined. Blood concentrations of glutamate, pyruvate and oxaloacetate were monitored in parallel. […] However, as soon as the administration of pyruvate and oxaloacetate was stopped, their blood concentration decreased and the glutamate level increased concomitantly.

Data set [4] deals with brain to blood glutamate efflux. Nature of the data set: Brain-to-blood [3H]Glu efflux after intracerebroventricular injection. Conditions: first 10 minutes after injection in lateral ventricle, n=8.
Method: Catheterization of the tail vein (for drug injections) and of the femoral vein (for blood aliquot withdrawals) was performed using PE10 polyethylene tubing linked to PE50 polyethylene tubing. […] A 27G steel cannula was implanted in the right lateral ventricle using the following stereotactic coordinates: 0.8 mm posterior to bregma; lateral 1.4 mm; depth: 4 mm from skull or 3.5 mm from dura. A [^3H] glutamate solution in phosphate buffered saline (PBS) was injected into the lateral ventricle through the implanted cannula using a Hamilton syringe (25 μl) connected to PE20 tube filled with solution. A total volume of 11 μl was injected within approximately 2 minutes.
For radioactivity determination, 50 μl blood samples were diluted in 500 μl H2O and added to 16 ml of scintillation fluid. Measured cpms were corrected for quenching as determined by comparing the measured cpms of a set volume of [^3H] glutamate added to water or to diluted blood. Body temperature was maintained with a lamp and rectal temperature was monitored. Rat pulse rate was monitored using a Periflux system 500 and a laser Doppler probe placed onto the skull.
Intravenous injections of pyruvate and oxaloacetate diluted in phosphate buffered saline (PBS) were carried out at a rate of 0.05 ml/minute for 30 minutes with a Pharmacia pump P-1.
The nature of data set [5]: Glutamate life time in blood after bolus intravenous injection of labelled glutamate. The format is in vivo, rat. The method, then:
Results—Glutamate normalization may be accomplished by estimating the rate of disappearance of [^14C] glutamate from the blood, by methodology detailed in the preceding example. Administration of a bolus intravenous injections of 11 μCi radio-labeled glutamate in the absence or presence of non-radioactive glutamate was conducted and the presence of radioactivity in blood was monitored over time (FIG. 19).

Data set [6] concerns blood and plasma glutamate (GOT). As to the kind of experiment: Effect of diethyloxaloacetate on glutamate in rat blood and plasma in vitro. Type of data set: biochemical. As to conditions: 10 mM. Here is the method:
Thereafter, the effect of diethyloxaloacetate on Glutamate levels was assessed. Glutamate levels were determined in rat blood samples upon incubation in the absence or presence of 10 mM diethyloxaloacetate. […] FIG. 31 represents the amount of plasma glutamate converted probably into α-ketoglutarate following the activation of GOT as a function of time by the presence of 10 mM diethyloxaloacetate.

The nature of data set [7]: Conversion of diethyloxaloacetate into oxaloacetate in rat blood and tissue homogenates. Type of data set: in vitro ADME. Conditions: 10 mM diethyloxaloacetate. The method, then:
as §3
The use of an oxaloacetate prodrug, which following in vivo administration, is converted to oxaloacetate, may obviate this problem. Thus the commercially available oxaloacetate diethylester (FIG. 27B) was considered in this context. Conversion of oxaloacetate diethylester into oxaloacetate following incubation with tissue homogenates derived from rat liver, colon, ileum, jejunum and duodenum was investigated.

Data set [8] addresses T1, glutamate, 2-ketoglutarate (Escherichia coli, UniProt P00509).
T1 sequence (P00509 whole entry, looked up): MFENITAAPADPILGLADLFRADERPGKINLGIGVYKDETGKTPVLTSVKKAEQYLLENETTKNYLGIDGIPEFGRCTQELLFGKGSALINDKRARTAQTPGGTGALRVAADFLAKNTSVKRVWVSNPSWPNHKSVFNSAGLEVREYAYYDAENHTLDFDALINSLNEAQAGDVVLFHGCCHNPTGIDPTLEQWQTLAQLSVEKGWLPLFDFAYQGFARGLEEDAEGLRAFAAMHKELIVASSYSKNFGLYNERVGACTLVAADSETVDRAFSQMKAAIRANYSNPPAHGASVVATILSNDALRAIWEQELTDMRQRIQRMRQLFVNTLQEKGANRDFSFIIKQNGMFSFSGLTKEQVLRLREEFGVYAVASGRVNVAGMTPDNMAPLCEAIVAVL
As to conditions: cited from earlier work.

Data set [9] has as its system blood glutamate (blood resident GPT and GOT). Nature of the data set: In-vitro scavenging of glutamate in whole rat blood by activation of resident enzymes. The format is biochemical. As to conditions: 37° C., 1 mM co-substrate and/or 2.5 u/ml GPT. The method, then:
as §1, §2
Supernatant glutamate concentration was determined according to the fluorometric procedure of Graham and Aprison [(1996) Anal. Biochem. 15(3):487-97]. […] Fluorescence was measured at 460 nm following excitation at 350 nm. […]

[10] abbreviates: normal blood glutamate concentration of 209 μM.
[11] abbreviates: rat blood in vitro, 24 hours, 37° C.

Take `Nc1ncnc2c1ncn2[C@@H]1O[C@H](COP(=O)(O)OP(=O)(O)O)[C@@H](O)[C@H]1O` [ADP]: in data set [1], the “blood cell (cellular) glutamate levels” value is “did not significantly alter glutamate levels” and the plasma glutamate levels entry is reported as “increased plasma glutamate levels”.
With `O=CC(=O)O` [Glyoxalate], in [2], the “% of remaining Glutamate” value worked out at 74%.
Consider `CC(C)C[C@H](N)C(=O)O` [Leucine], for which, in data set [1], the “blood cell (cellular) glutamate levels” value is “did not significantly alter glutamate levels” and the plasma glutamate levels entry is “increased plasma glutamate levels”.
Taken in the same sequence, the figures for `NC(=O)c1ccc[n+]([C@@H]2O[C@H](COP(=O)([O-])OP(=O)(O)OC[C@H]3O[C@@H](n4cnc5c(N)ncnc54)[C@H](O)[C@@H]3O)[C@@H](O)[C@H]2O)c1` [NAD] were “decrease in blood cell glutamate levels” and “increase in plasma glutamate levels”.
Consider `O=C(O)CC(=O)C(=O)O` [Oxaloacetate], for which the “blood concentration built up” value in [3] worked out at 450 µM.
On the same count and under the same terms, to `CC(=O)C(=O)O` [Pyruvate] belongs 450 µM.
On to `O=CCCC(=O)O` [Succinic semialdehyde], for which, in data set [2], the “% of remaining Glutamate” value is 78%.
In the case of `N[C@@H](CCC(=O)O)C(=O)O` [[^3H] glutamate, glutamate], the “rate of appearance of radioactivity in blood, of the amount input in the brain per minute” value in data set [4] was 0.8%±0.1. Also, the results for the “glutamate eliminated per minute” value in data set [5] (blood glutamate 3.4 mM) and in data set [5] (setting [10]) were 69 nmoles glutamate/ml blood and 5.4 nmoles of glutamate/ml blood, respectively. In addition, the “elimination half-life in blood” value in [5] (blood glutamate 3.4 mM after intraperitoneal 2 mMoles of glutamate) is 24.6 min; in data set [5] (setting [10]), 19.3 min. In addition, the elimination rate constant in data set [5] (normal blood glutamate concentration) was found to be 0.035 min⁻¹.
Consider `CCOC(=O)CC(=O)C(=O)OCC` [diethyloxaloacetate], for which the glutamate blood levels entry in [6] (setting [11]) is reported as “did not affect glutamate blood levels”. Also, in [6] (rat blood plasma in vitro, following 9 hours incubation), the plasma glutamate result was “significant increase in plasma glutamate”. For the same molecule, the “increase in basal oxaloacetate levels” value in data set [7] (liver and sections of rat gut mucosa, within 15 minutes) is 400%. The “increase of blood oxaloacetate” value in data set [7] (setting [11]) was 240%.
`Cc1ncc(COP(=O)(O)O)c(C=O)c1O` [pyridoxal phosphate]: the “enhancement of pyruvate and oxaloacetate-mediated decrease in cellular or plasma glutamate” value in data set [1] (15 μM pyridoxal phosphate) is “No significant effects”.
Consider `CCC(=O)C(=O)O` [α-Ketobutyrate], for which, in [2] (0.5 mM, rat plasma), the “decrease in plasma glutamate levels” value is reported as “no effect”. Moreover, the “glutamate degradation as compared to basal glutamate levels” value in data set [2] (2 mM, rat plasma) is 40%. For the same molecule, the “conversion of glutamate in the presence of oxaloacetate” value in [2] (in the presence of 0.25 mM oxaloacetate) is on record as “enhanced conversion of glutamate”. Further, in data set [2], the “% of remaining Glutamate” value is listed as 97%.
As for `O=C(O)C(=O)CO` [β-Hydroxypyruvate], the “% of remaining Glutamate” value in data set [2] stood at 74%.
The same measure, in the same setting: the same measure for `O=C(O)C(=O)Cc1ccccc1` [β-Phenylpyruvate]: 76%; for α-Isocaproate: 83%.

B1: E. coli GOT: E. coli glutamate oxaloacetate transaminase, GenBank Accession No. D90731.1 (protein, UniProt P00509 1-396, looked up)
Aspartate aminotransferase: T1 sequence (P00509 whole entry, looked up)
For the molecule B1, in data set [8], the “affinity for 2-ketoglutarate” value was “about 0.2 mM” and the affinity for glutamate result is given as “about 8 mM”.

B2: GPT: glutamate pyruvate transaminase enzyme added at 2.5 u/ml (protein, UniProt P24298 2-496, looked up)
Alanine aminotransferase 1: ASSTGDRSQAVRHGLRAKVLTLDGMNPRVRRVEYAVRGPIVQRALELEQELRQGVKKPFTEVIRANIGDAQAMGQRPITFLRQVLALCVNPDLLSSPNFPDDAKKRAERILQACGGHSLGAYSVSSGIQLIREDVARYIERRDGGIPADPNNVFLSTGASDAIVTVLKLLVAGEGHTRTGVLIPIPQYPLYSATLAELGAVQVDYYLDEERAWALDVAELHRALGQARDHCRPRALCVINPGNPTGQVQTRECIEAVIRFAFEERLFLLADEVYQDNVYAAGSQFHSFKKVLMEMGPPYAGQQELASFHSTSKGYMGECGFRGGYVEVVNMDAAVQQQMLKLMSVRLCPPVPGQALLDLVVSPPAPTDPSFAQFQAEKQAVLAELAAKAKLTEQVFNEAPGISCNPVQGAMYSFPRVQLPPRAVERAQELGLAPDMFFCLRLLEETGICVVPGSGFGQREGTYHFRMTILPPLEKLRLLLEKLSRFHAKFTLEYS
Take B2: the blood glutamate levels entry in data set [9] was “significant increase in blood glutamate”.

The values are drawn from patent US7767204B2, “Method and composition for protecting neuronal tissue from damage induced by elevated glutamate levels” (Yeda Research And Development Co. Ltd., priority 2002, dated 2010).
